Experimental data taken from ChEMBL document CHEMBL5532747, “Potent, Selective, and Orally Bioavailable Quinazoline-Based STK17A/B Dual Inhibitors” (ACS Med Chem Lett, 2024).

Columns and labels:
[1] = target: T1, Serine/threonine-protein kinase 17A (Homo sapiens, UniProt Q9UEE5); assay: Inhibition of STK17A (unknown origin) in presence of ATP
T1 sequence (Q9UEE5 whole entry): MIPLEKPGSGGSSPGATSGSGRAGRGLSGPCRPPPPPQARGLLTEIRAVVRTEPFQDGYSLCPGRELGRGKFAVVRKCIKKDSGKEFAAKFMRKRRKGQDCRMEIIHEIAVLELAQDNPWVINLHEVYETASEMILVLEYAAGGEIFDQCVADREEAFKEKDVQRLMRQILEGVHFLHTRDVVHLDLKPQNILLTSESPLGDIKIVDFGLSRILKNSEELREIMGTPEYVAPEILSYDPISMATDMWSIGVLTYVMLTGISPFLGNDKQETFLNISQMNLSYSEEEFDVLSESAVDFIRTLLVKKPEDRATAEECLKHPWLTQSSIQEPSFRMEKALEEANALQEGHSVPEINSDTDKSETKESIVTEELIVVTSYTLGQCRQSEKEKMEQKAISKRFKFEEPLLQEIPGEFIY

CYP2C9 = CYP2C9 (Homo sapiens, UniProt P11712); assay: Inhibition of CYP2C9 (unknown origin) using tolbutamide as substrate at 10 uM by cocktail based assay relative to control; format: ADME; conditions: probe tolbutamide
Sequence of CYP2C9 (P11712 whole entry): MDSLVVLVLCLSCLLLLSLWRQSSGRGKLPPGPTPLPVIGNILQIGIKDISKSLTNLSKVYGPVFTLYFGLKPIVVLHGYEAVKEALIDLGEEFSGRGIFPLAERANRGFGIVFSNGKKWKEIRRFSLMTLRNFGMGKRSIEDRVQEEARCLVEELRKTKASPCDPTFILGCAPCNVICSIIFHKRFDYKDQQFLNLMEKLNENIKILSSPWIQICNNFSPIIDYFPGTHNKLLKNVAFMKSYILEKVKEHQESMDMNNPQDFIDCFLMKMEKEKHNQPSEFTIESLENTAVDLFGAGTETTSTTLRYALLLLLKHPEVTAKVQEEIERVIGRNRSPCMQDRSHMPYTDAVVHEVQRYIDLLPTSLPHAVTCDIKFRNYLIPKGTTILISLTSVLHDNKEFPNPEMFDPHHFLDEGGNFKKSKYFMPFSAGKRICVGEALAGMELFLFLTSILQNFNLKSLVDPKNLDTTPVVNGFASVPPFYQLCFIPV

CYP2D6 = CYP2D6 (Homo sapiens, UniProt P10635); assay: Inhibition of CYP2D6 (unknown origin) using bufuralol as substrate at 10 uM by cocktail based assay relative to control; format: ADME; conditions: probe bufuralol
Sequence of CYP2D6 (P10635 whole entry): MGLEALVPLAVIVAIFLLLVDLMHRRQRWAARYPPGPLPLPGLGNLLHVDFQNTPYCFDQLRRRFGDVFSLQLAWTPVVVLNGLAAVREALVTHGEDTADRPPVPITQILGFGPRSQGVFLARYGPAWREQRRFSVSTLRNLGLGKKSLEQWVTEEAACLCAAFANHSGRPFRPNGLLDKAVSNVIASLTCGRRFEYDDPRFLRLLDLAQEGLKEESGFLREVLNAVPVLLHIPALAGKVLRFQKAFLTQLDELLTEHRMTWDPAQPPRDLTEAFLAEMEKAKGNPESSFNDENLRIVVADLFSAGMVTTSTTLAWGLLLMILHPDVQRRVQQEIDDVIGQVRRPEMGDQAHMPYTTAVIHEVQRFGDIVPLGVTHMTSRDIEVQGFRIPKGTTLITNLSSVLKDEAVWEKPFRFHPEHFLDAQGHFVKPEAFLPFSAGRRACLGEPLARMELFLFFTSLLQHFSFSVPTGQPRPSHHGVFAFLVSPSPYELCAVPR

[2] = target: T2, Myosin light chain kinase family member 4 (Homo sapiens, UniProt Q86YV6); assay: Inhibition of MYLK4 (unknown origin) in presence of ATP
T2 sequence (Q86YV6 whole entry): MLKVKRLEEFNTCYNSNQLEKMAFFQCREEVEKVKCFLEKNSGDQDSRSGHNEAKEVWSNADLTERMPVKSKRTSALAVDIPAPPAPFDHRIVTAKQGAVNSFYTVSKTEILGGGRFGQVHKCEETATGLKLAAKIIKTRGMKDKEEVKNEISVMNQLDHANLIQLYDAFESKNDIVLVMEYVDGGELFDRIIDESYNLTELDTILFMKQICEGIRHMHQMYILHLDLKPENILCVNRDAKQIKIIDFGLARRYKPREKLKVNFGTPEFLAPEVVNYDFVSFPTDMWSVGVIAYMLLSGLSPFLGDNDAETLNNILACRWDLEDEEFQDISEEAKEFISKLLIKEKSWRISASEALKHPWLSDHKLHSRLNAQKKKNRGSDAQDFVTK

CYP1A2 = target: T3, CYP1A2 (Homo sapiens, UniProt P05177); assay: Inhibition of CYP1A2 (unknown origin) using phenacetin as substrate at 10 uM by cocktail based assay relative to control; format: ADME; conditions: probe phenacetin
T3 sequence (P05177 whole entry): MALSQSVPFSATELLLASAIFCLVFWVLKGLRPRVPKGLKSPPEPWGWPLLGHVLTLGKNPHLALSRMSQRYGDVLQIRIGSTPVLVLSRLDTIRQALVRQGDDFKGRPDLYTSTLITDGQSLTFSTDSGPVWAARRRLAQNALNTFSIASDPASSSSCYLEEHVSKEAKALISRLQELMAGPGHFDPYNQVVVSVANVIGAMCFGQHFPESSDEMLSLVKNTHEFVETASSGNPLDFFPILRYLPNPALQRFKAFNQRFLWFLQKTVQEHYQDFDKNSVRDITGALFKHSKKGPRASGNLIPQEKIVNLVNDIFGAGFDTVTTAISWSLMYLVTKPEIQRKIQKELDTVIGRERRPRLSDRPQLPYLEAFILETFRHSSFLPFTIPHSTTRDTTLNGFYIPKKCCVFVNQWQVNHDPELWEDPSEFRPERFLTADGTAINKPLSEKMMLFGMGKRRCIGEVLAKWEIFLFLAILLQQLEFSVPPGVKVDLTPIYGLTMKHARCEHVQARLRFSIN

[3] = Microsomal stability in human liver microsomes assessed as half life; format: ADME, Microsome
[4] = Microsomal stability in mouse liver microsomes assessed as half life; format: ADME, Microsome
CYP3A4 = CYP3A4 (Homo sapiens, UniProt P08684); assay: Inhibition of CYP3A4 (unknown origin) using midazolam as substrate at 10 uM by cocktail based assay relative to control; format: ADME; conditions: probe midazolam
Sequence of CYP3A4 (P08684 whole entry): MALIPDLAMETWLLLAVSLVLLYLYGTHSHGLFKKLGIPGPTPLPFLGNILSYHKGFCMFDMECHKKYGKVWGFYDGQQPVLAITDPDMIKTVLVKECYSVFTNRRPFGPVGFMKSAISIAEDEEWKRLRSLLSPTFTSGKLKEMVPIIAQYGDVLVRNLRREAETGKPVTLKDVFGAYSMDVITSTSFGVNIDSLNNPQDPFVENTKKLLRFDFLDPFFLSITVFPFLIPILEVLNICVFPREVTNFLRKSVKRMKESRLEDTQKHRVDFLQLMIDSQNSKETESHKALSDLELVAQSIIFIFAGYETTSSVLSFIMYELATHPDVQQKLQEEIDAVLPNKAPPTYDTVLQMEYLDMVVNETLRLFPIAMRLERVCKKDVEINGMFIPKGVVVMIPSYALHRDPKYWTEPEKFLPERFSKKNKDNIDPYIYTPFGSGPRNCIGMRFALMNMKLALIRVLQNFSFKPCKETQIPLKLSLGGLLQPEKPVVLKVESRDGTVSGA

[5] = target: T4, Dual specificity protein kinase CLK4 (Homo sapiens, UniProt Q9HAZ1); assay: Inhibition of CLK4 (unknown origin) in presence of ATP
Target sequence in this assay (Q9HAZ1 whole entry): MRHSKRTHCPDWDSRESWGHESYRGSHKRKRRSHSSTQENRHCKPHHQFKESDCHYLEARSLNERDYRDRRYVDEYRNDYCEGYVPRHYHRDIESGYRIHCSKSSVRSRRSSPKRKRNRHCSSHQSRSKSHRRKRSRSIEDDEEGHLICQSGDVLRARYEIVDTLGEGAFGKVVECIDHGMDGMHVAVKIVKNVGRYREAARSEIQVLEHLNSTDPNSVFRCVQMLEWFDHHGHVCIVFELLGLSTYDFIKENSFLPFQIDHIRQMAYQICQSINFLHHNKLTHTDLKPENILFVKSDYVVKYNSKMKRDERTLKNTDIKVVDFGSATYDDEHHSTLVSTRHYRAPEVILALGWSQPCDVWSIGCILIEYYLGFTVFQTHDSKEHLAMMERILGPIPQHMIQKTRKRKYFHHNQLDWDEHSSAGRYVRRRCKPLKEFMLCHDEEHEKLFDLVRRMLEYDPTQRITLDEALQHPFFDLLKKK

HEL = assay: Antiproliferative activity against human HEL cells assessed as inhibition of cell growth incubated for 72 hrs by Cell Titer-Glo luminescence assay; format: functional, cell-based
[6] = Antiproliferative activity against human HEK293T cells assessed as inhibition of cell growth incubated for 72 hrs by Cell Titer-Glo luminescence assay; format: toxicity, cell-based, HEK-293T
MOLM-13 = assay: Antiproliferative activity against human MOLM-13 cells assessed as inhibition of cell growth incubated for 72 hrs by Cell Titer-Glo luminescence assay; format: functional, cell-based; conditions: MOLM-13, 72 h
Kasumi 1 = assay: Antiproliferative activity against human Kasumi 1 cells assessed as inhibition of cell growth incubated for 72 hrs by Cell Titer-Glo luminescence assay; format: functional, cell-based; conditions: Kasumi 1, 72 h
LIM domain kinase 1 [7] = target: T5, LIM domain kinase 1 (Homo sapiens, UniProt P53667); conditions: dose 100.0 nM
Description: Inhibition of LIMK1 (unknown origin) at 100 nM in presence of ATP relative to control

[8] = target: Serine/threonine-protein kinase Nek5 (Homo sapiens) (UniProt Q6P3R8); conditions: dose 100.0 nM
Description: Inhibition of NEK5 (unknown origin) at 100 nM in presence of ATP relative to control

[9] = target: Serine/threonine-protein kinase Nek5 (Homo sapiens, UniProt Q6P3R8); assay: Inhibition of NEK5 (unknown origin) in presence of ATP
LIM domain kinase 1 [10] = target: T5, LIM domain kinase 1; assay: Inhibition of LIMK1 (unknown origin) in presence of ATP
[11] = target: Serine/threonine-protein kinase Nek3 (Homo sapiens) (UniProt P51956); conditions: dose 100.0 nM
Sequence of Serine/threonine-protein kinase Nek3 (Homo sapiens) (P51956 whole entry): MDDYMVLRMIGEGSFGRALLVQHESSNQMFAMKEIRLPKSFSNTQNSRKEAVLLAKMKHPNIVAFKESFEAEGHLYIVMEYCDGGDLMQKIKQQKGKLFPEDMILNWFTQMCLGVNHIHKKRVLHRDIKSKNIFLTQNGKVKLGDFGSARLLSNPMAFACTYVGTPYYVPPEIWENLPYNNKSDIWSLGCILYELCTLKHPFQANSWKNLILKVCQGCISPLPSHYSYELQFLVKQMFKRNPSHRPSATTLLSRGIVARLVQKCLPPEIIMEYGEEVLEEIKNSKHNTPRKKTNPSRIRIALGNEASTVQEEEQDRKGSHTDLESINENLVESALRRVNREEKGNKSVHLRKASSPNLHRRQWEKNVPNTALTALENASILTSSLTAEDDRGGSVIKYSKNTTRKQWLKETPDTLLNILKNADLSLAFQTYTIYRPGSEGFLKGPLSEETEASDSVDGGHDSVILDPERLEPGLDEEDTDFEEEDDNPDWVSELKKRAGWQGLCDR
Description: Inhibition of NEK3 (unknown origin) at 100 nM in presence of ATP relative to control

[12] = target: Serine/threonine-protein kinase Nek3 (Homo sapiens, UniProt P51956); assay: Inhibition of NEK3 (unknown origin) in presence of ATP
Sequence of Serine/threonine-protein kinase Nek3 (P51956 whole entry): as above

[13] = Tmax in C57BL/6 mouse at 10 mg/kg,po administration and measured upto 24 hrs; format: ADME, organism-based; conditions: in vivo
[14] = target: Serine/threonine-protein kinase 17B (Homo sapiens) (UniProt O94768); assay: Inhibition of STK17B (unknown origin) at 1 uM in presence of ATP relative to control
Sequence of Serine/threonine-protein kinase 17B (Homo sapiens) (O94768 whole entry): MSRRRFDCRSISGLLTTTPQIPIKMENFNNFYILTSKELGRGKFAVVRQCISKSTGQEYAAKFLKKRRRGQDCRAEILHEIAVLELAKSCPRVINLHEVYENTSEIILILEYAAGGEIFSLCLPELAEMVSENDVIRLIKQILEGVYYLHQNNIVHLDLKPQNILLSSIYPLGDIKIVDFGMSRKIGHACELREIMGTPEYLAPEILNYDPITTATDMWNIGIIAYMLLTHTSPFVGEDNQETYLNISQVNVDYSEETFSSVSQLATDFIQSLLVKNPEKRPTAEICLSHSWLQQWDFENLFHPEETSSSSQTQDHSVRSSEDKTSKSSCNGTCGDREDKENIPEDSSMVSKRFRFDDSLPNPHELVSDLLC

[15] = Cmax in C57BL/6 mouse at 10 mg/kg,po administration and measured upto 24 hrs; format: ADME, organism-based; conditions: in vivo
[16] = Half life in C57BL/6 mouse at 10 mg/kg,po administration and measured upto 24 hrs; format: ADME, organism-based; conditions: in vivo
[17] = AUClast in C57BL/6 mouse at 10 mg/kg,po administration and measured upto 24 hrs; format: ADME, organism-based; conditions: in vivo
[18] = target: Serine/threonine-protein kinase TBK1 (Homo sapiens, UniProt Q9UHD2); assay: Inhibition of TBK1 (unknown origin) in presence of ATP
Sequence of Serine/threonine-protein kinase TBK1 (Q9UHD2 whole entry): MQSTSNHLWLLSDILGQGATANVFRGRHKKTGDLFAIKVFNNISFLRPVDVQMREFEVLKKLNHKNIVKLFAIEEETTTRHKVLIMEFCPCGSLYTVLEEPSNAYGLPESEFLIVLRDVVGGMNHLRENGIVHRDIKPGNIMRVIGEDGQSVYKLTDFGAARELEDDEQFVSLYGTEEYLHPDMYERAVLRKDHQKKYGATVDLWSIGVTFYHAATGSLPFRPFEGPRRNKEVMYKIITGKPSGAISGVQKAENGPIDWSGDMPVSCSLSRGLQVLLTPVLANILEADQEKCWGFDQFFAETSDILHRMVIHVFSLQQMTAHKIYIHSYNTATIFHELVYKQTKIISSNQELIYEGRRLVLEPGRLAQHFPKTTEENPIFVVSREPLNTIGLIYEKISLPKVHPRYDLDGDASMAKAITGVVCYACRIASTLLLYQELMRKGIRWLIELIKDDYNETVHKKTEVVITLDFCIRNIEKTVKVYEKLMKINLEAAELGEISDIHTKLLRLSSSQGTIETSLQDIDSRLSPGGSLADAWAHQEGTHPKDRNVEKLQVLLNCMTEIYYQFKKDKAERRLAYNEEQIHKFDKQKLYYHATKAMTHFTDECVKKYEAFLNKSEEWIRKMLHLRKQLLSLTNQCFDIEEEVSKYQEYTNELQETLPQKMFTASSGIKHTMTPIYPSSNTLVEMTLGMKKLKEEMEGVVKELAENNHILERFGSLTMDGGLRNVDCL

[19] = target: Serine/threonine-protein kinase 17A (Homo sapiens) (UniProt Q9UEE5); conditions: dose 100.0 nM
Description: Inhibition of STK17A (unknown origin) at 100 nM in presence of ATP relative to control

[20] = target: Dual specificity protein kinase CLK2 (Homo sapiens) (UniProt P49760); assay: Inhibition of CLK2 (unknown origin) at 100 nM in presence of ATP relative to control
Sequence of Dual specificity protein kinase CLK2 (Homo sapiens) (P49760 whole entry, looked up): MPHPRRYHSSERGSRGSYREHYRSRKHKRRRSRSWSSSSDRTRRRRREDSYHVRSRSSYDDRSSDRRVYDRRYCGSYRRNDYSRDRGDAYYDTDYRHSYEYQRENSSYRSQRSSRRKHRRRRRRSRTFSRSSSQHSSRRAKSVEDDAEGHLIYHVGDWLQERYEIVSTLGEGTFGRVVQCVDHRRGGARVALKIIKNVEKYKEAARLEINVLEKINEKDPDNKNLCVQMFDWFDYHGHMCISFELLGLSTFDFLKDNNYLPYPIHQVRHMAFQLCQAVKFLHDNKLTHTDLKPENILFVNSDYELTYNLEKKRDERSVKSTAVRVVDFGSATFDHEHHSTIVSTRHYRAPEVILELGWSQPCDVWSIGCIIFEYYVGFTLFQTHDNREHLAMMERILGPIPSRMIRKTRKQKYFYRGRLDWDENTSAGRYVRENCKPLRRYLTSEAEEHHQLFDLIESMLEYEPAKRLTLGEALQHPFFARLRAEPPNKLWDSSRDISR

[21] = target: T4, Dual specificity protein kinase CLK4; conditions: dose 100.0 nM
Target sequence in this assay (Q9HAZ1 whole entry, looked up): as the sequence (Q9HAZ1 whole entry) above
Description: Inhibition of CLK4 (unknown origin) at 100 nM in presence of ATP relative to control

[22] = target: Inhibitor of nuclear factor kappa-B kinase subunit epsilon (Homo sapiens) (UniProt Q14164); assay: Inhibition of IKKepsilon (unknown origin) at 100 nM in presence of ATP relative to control
Sequence of Inhibitor of nuclear factor kappa-B kinase subunit epsilon (Homo sapiens) (Q14164 whole entry): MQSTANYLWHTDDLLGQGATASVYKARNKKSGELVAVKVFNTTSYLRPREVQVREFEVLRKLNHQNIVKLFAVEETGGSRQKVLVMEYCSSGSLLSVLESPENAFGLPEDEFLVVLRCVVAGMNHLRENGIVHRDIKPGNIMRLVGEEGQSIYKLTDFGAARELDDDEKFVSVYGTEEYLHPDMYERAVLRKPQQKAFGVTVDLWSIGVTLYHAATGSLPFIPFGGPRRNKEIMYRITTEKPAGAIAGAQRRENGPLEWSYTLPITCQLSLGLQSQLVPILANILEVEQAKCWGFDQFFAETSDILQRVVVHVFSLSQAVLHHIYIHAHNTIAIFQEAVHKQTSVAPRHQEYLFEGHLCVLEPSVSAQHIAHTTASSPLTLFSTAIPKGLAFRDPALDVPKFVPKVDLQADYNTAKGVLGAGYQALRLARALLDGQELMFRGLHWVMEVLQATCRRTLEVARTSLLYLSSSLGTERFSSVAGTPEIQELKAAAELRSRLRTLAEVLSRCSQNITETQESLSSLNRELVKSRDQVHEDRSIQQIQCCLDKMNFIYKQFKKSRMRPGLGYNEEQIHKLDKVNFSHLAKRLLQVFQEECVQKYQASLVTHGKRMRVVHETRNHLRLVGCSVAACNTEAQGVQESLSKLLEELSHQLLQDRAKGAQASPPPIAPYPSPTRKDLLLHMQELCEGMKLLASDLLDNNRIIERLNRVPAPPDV

[23] = target: Myosin light chain kinase family member 4 (Homo sapiens) (UniProt Q86YV6); conditions: dose 100.0 nM
Description: Inhibition of MYLK4 (unknown origin) at 100 nM in presence of ATP relative to control

[24] = target: Serine/threonine-protein kinase TBK1 (Homo sapiens) (UniProt Q9UHD2); conditions: dose 100.0 nM
Sequence of Serine/threonine-protein kinase TBK1 (Homo sapiens) (Q9UHD2 whole entry): as the sequence (Q9UHD2 whole entry) above
Description: Inhibition of TBK1 (unknown origin) at 100 nM in presence of ATP relative to control

| SMILES | IC50 [1] | inhibition at 10 µM (CYP2C9) | inhibition at 10 µM (CYP2D6) | IC50 [2] | inhibition at 10 µM (CYP1A2) | half-life [3] | half-life [4] | inhibition at 10 µM (CYP3A4) | IC50 [5] | other results |
| --- | --- | --- | --- | --- | --- | --- | --- | --- | --- | --- |
| c1cc(-c2ccc3nc(N4CCCC4)ncc3c2)nc(Nc2ccc(OC3CCNCC3)cc2)n1 | > 10000 nM |  |  |  |  |  |  |  |  |  |
| COC(=O)N1CCC(c2ccc(Nc3nccc(-c4ccc5nc(N6CCCC6)ncc5c4)n3)cn2)CC1 | 66 nM |  |  |  |  |  |  |  |  |  |
| c1cc(-c2ccc3nc(N4CCCC4)ncc3c2)nc(Nc2cnn(C3CCNCC3)c2)n1 | 20 nM | < 10% | 5% | 6 nM | 52% | 23 min | > 100 min | < 10% |  |  |
| CC(C)NC(=O)c1ccc(Nc2ncc(F)c(-c3ccc4nc(N5CCCC5)ncc4c3)n2)cc1 | 25 nM | < 10% | < 10% | > 1000 nM | < 10% | 44 min | 22 min | < 10% | > 10000 nM |  |
| COC(=O)N1CCC(c2ccc(Nc3nccc(-c4ccc5nc(N6C[C@@H]7C[C@H]6CO7)ncc5c4)n3)cn2)CC1 | 29 nM |  |  |  |  |  |  |  |  |  |
| c1cc(-c2ccc3nc(N4CCCC4)ncc3c2)nc(Nc2ccc(N3CCOCC3)cc2)n1 | 43 nM | 14% | < 10% | 46 nM | < 10% | 69 min | 35 min | 22% |  |  |
| c1cc(-c2ccc3nc(N4CCCC4)ncc3c2)nc(Nc2ccc(N3CCNCC3)cc2)n1 | 55 nM | 23% | 2% | 27 nM | 7% | > 100 min | 9 min | 22% |  |  |
| CC(C)NC(=O)c1cccc(Nc2nccc(-c3ccc4nc(N5CCCC5)ncc4c3)n2)c1 | 144 nM |  |  |  |  |  |  |  |  |  |
| CN1CCN(c2ccc(Nc3nccc(-c4ccc5nc(N6CCCC6)ncc5c4)n3)cc2)CC1 | 51 nM |  |  |  |  |  |  |  |  |  |
| OCCN1CCC(n2cc(Nc3ncc(F)c(-c4ccc5nc(N6CCOCC6)ncc5c4)n3)cn2)CC1 | 21 nM | < 10% | < 10% | 17 nM | < 10% | 97 min | 83 min | < 10% |  | IC50 (HEL): 2960 nM; IC50 at 72 h [6]: 16.2 µM; IC50 (MOLM-13): 1960 nM; IC50 (Kasumi 1): 760 nM |
| CC(C)NC(=O)c1ccc(Nc2nccc(-c3ccc4nc(N5CCCC5)ncc4c3)n2)cc1 | 23 nM | 14% | 3% | 440 nM | < 10% | 45 min | 37 min | 16% | > 10000 nM | inhibition (LIM domain kinase 1 [7]): 46%; IC50 (HEL): 2310 nM; IC50 at 72 h [6]: 99.5 µM; inhibition [8]: 45%; IC50 [9]: 132 nM; IC50 (LIM domain kinase 1 [10]): 650 nM; inhibition [11]: 40%; IC50 [12]: 245 nM; Tmax [13]: 1 h; IC50 (MOLM-13): 920 nM; inhibition [14]: 98%; Cmax [15]: 1000 nM; half-life [16]: 162 min; IC50 (Kasumi 1): 7670 nM; AUC(0-t) at 24 h [17]: 4.2 µM·h |
| OCCN1C[C@@H]2C[C@H]1CN2c1ccc(Nc2ncc(F)c(-c3ccc4nc(N5CCCC5)ncc4c3)n2)cn1 | 48 nM |  |  | 13 nM |  |  |  |  | 160 nM |  |
| c1cc(-c2ccc3nc(N4CCOCC4)ncc3c2)nc(Nc2ccc(N3CCNCC3)cc2)n1 | 20 nM | 7% | < 10% | 4 nM | < 10% | 12 min | 16 min | 11% |  |  |
| CC(C)NC(=O)c1ccc(Nc2nccc(-c3ccc4nc(N5CCOCC5)ncc4c3)n2)cc1 | 20 nM | < 10% | 1% | 68 nM | 12% | 16 min | 59 min | < 10% |  |  |
| OCCN1CCC(c2ccc(Nc3nccc(-c4ccc5nc(N6C[C@@H]7C[C@H]6CO7)ncc5c4)n3)cn2)CC1 | 17 nM | < 10% | < 10% | 40 nM | < 10% | 20 min | 69 min | < 10% | 1120 nM |  |
| O=C(NC1CCNCC1)c1ccc(Nc2nccc(-c3ccc4nc(N5CCCC5)ncc4c3)n2)cc1 | 316 nM |  |  |  |  |  |  |  |  |  |
| c1cc(-c2ccc3nc(N4CCCC4)ncc3c2)nc(Nc2ccc(N3CCNCC3)nc2)n1 | 18 nM |  |  | 2 nM |  |  |  |  | 124 nM | IC50 [18]: 135 nM; IC50 (HEL): 1930 nM; inhibition [19]: 75%; IC50 at 72 h [6]: 11.7 µM; inhibition [20]: 50%; inhibition [21]: 50%; inhibition [22]: 45%; IC50 (MOLM-13): 1340 nM; inhibition [23]: 95%; inhibition [24]: 45%; IC50 (Kasumi 1): 1190 nM |
| CC(C)NC(=O)c1ccc(Nc2nccc(-c3ccc4nc(N5CCCC5)ncc4c3)n2)cn1 | 12 nM | 39% | 16% | 85 nM | 22% | 61 min | 92 min | 25% | > 10000 nM |  |
| c1cc(-c2ccc3nc(N4CCOCC4)ncc3c2)nc(Nc2cnn(C3CCNCC3)c2)n1 | 19 nM | < 10% | < 10% | 6 nM | 11% | 84 min | 62 min | < 10% |  |  |
